# Reference: patent US20180110824A1, “Macrocyclic Modulators of the Ghrelin Receptor” (Ocera Therapeutics, Inc., priority 2016, published 2018)
# Like-named read-outs stand apart in the source and are kept apart here.
# Target: T1, human growth hormone secretagogue receptor (hGHS-R1a) (Homo sapiens, UniProt Q92847)
# T1 construct: purchased PerkinElmer BioSignal #RBHGHSM; host or cells: HEK-293, stably transfected
# Assay: Competitive radioligand binding assay (ghrelin receptor), [125I]-ghrelin displacement on GHS-R/HEK 293 membranes;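 for Binding Activity at the Human Ghrelin Receptor (Ki): symbols B 10-100 nM C 0.1-1 µM D 1-10 µM F above 1 µM G above 10 µM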
# Procedure: The competitive binding assay at the human growth hormone secretagogue receptor (hGHS-R1a) was carried out analogously to assays described in the literature.
# Multiscreen Harvest plates-GF/C (Millipore, #MAHFC1H60) • 4. […] Bottom seal (Millipore, #MATAH0P00) • 7. […] Binding Buffer: 25 mM Hepes (pH 7.4), 1 mM CaCl2, 5 mM MgCl2, 2.5 mM EDTA, 0.4% BSA
# Competition experiments were performed in a 300 μl filtration assay format. • 1. 220 μL of membranes diluted in binding buffer • 2. 40 μL of compound diluted in binding buffer • 3.
# Compounds were provided frozen on dry ice at a stock concentration of 10 mM diluted in 100% DMSO and stored at −80° C. until the day of testing. On the test day, compounds were allowed to thaw at rt O/N and then diluted in assay buffer according to the desired test concentrations. Under these conditions, the maximal final DMSO concentration in the assay was 0.1%.
# Plates were sealed with TopSeal-A, vortexed gently and incubated at rt for 30 min. The reaction was arrested by filtering samples through Multiscreen Harvest plates (pre-soaked in 0.5% polyethyleneimine) using a Tomtec Harvester, washed 9 times with 500 μL of cold 50 mM Tris-HCl (pH 7.4, 4° C.), and then plates were air-dried in a fumehood 30 min. A bottom seal was applied to the plates prior to the addition of 25 μL of MicroScint-0 to each well. […] Results were expressed as counts per minute (cpm).
# Data were analyzed by GraphPad Prism (GraphPad Software, San Diego, Calif.) using […] non-linear regression analysis.
# where total and non-specific binding represent the cpm obtained in the absence or presence of 1 μM ghrelin, respectively.
# • 1. Binding performed on membranes prepared from HEK293 expressing the transfected, cloned human ghrelin receptor (hGHS-R1a). • 2. […] Ghrelin (unlabeled, 1 μM) was used to determine non-specific binding. • 4.
# [1] = Binding activity at the human ghrelin receptor, [125I]-ghrelin displacement, read-out: Ki
# [2] = [125I]-ghrelin displacement, GHS-R/HEK 293 membranes, class symbols, read-out: Binding Activity at the Human Ghrelin Receptor (Ki)
# T1 sequence (Q92847 whole entry): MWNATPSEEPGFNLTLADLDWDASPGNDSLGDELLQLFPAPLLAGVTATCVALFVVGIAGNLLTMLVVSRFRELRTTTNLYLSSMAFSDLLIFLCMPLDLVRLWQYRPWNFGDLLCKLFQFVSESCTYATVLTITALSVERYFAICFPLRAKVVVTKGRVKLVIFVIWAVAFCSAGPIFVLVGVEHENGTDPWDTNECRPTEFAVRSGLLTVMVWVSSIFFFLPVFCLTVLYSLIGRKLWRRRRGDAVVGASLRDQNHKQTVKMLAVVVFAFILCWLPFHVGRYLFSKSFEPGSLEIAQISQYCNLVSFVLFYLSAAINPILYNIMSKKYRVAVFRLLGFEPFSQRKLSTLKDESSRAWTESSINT
Ki [1],Ki [2],SMILES,further results
> 10000 nM,,CCC[C@@H]1NCCOc2ccccc2CCCNC(=O)[C@@H](Cc2ccccc2)NC(=O)[C@@H](CCC(=O)O)NC1=O [compound 71],
> 10000 nM,,CN1CC(=O)N[C@H](Cc2ccccc2)C(=O)NCCCc2ccccc2OCCN[C@@H](CCC(=O)O)C1=O [compound 73],
> 10000 nM,,CN1CC(=O)N[C@H](Cc2ccccc2)C(=O)NCCCc2ccccc2OCCN[C@@H](CO)C1=O [compound 76],
100 to 1000 nM,,CCC[C@@H]1NCc2ccccc2Sc2ccccc2CNC(=O)[C@@H](Cc2ccccc2)NC(=O)CN(C)C1=O [compound 77],
> 10000 nM,,CN1CC(=O)NC(Cc2ccccc2)C(=O)NCCCc2ccccc2OCCNCC1=O (stereo not shown) [compound 80],
> 10000 nM,,CCCC1NCCOCCNC(=O)C(Cc2ccccc2)NC(=O)CN(C)C1=O (stereo not shown) [compound 81],
> 10000 nM,,CCCC1NCC/C=C/CCNC(=O)C(Cc2ccccc2)NC(=O)CN(C)C1=O (stereo not shown) [compound 83],
> 10000 nM,,CC(C)C[C@@H]1NCCOc2ccccc2CCCNC(=O)[C@H](C)NC(=O)C2(CCCC2)NC1=O [compound 87],
1000 to 10000 nM,,CC(C)C[C@@H]1NCCOc2ccccc2CCCNC(=O)[C@H](Cc2ccc(O)cc2)NC(=O)C2(CCCC2)NC1=O [compound 88],
1000 to 10000 nM,,CC(C)C[C@@H]1NCCOc2ccccc2CCCNC(=O)[C@H](Cc2c[nH]c3ccccc23)NC(=O)C2(CCCC2)NC1=O [compound 89],
1000 to 10000 nM,,CC(C)C[C@@H]1NCCOc2ccccc2CCCNC(=O)[C@H](CCc2ccccc2)NC(=O)C2(CCCC2)NC1=O [compound 90],
> 10000 nM,,CC(C)C[C@@H]1NCCOc2ccccc2CCCNC(=O)[C@H](CCCCN)NC(=O)C2(CCCC2)NC1=O [compound 91],
> 10000 nM,,CC(C)C[C@@H]1NCCOc2ccccc2CCCNC(=O)[C@H](CCC(=O)O)NC(=O)C2(CCCC2)NC1=O [compound 92],
1000 to 10000 nM,,CC(C)C[C@@H]1NCCOc2ccccc2CCCNC(=O)[C@H](Cc2ccccc2)NC(=O)C(C)(C)NC1=O [compound 95],
> 10000 nM,,CC(C)C[C@H]1NCCOc2ccccc2CCCNC(=O)[C@H](Cc2ccccc2)NC(=O)C2(CCCC2)NC1=O [compound 96],
> 10000 nM,,CC(C)C[C@H]1NCCOc2ccccc2CCCNC(=O)[C@@H](Cc2ccccc2)NC(=O)C2(CCCC2)NC1=O [compound 98],
100 to 1000 nM,,C[C@@H]1NCCOc2ccccc2CCCNC(=O)[C@H](Cc2ccccc2)NC(=O)C2(CCCC2)NC1=O [compound 100],
100 to 1000 nM,,CCCC[C@@H]1NCCOc2ccccc2CCCNC(=O)[C@H](Cc2ccccc2)NC(=O)C2(CCCC2)NC1=O [compound 101],
100 to 1000 nM,,O=C1NC2(CCCC2)C(=O)N[C@@H](Cc2ccccc2)C(=O)NCCCc2ccccc2OCCN[C@H]1Cc1ccccc1 [compound 102],

Ki [1],Ki [2],SMILES,further results
> 10000 nM,,NCCCC[C@@H]1NCCOc2ccccc2CCCNC(=O)[C@H](Cc2ccccc2)NC(=O)C2(CCCC2)NC1=O [compound 103],
> 10000 nM,,O=C(O)CC[C@@H]1NCCOc2ccccc2CCCNC(=O)[C@H](Cc2ccccc2)NC(=O)C2(CCCC2)NC1=O [compound 104],
100 to 1000 nM,,O=C1NC2(CCCC2)C(=O)N[C@@H](Cc2ccccc2)C(=O)NCCCc2ccccc2OCCN[C@H]1CO [compound 105],
1000 to 10000 nM,,CC(C)C[C@@H]1NCc2ccccc2Sc2ccccc2CNC(=O)[C@H](Cc2ccccc2)NC(=O)C2(CCCC2)NC1=O [compound 108],
10 to 100 nM,,CC[C@@H]1NCCOc2ccccc2CCCNC(=O)[C@@H](Cc2ccccc2)NC(=O)[C@@H](C)N(C)C1=O [compound 117],
10 to 100 nM,,CC(C)C[C@@H]1NCCOc2ccccc2CCCNC(=O)[C@@H](Cc2ccccc2)NC(=O)[C@@H](C)N(C)C1=O [compound 118],
> 10000 nM,,C[C@@H]1C(=O)N[C@H](Cc2ccccc2)C(=O)NCCCc2ccccc2OCCNC2(CC2)C(=O)N1C [compound 121],
> 10000 nM,,O=C1NC2(CCCC2)C(=O)N[C@@H](Cc2ccccc2)C(=O)NC/C=C/c2ccccc2OCCN[C@H]1Cc1ccc(F)cc1 [compound 125],
100 to 1000 nM,,COc1ccc(C[C@@H]2NCCOc3ccccc3/C=C/CNC(=O)[C@H](Cc3ccccc3)NC(=O)C3(CCCC3)NC2=O)cc1 [compound 127],
> 10000 nM,,O=C1NC/C=C/c2ccccc2OCCN[C@@H](C(c2ccccc2)c2ccccc2)C(=O)NC2(CCCC2)C(=O)N[C@H]1Cc1ccccc1 [compound 129],
1000 to 10000 nM,,O=C1NC2(CCCC2)C(=O)N[C@@H](Cc2ccccc2)C(=O)NC/C=C/c2ccccc2OCCN[C@H]1Cc1cccc2ccccc12 [compound 130],
100 to 1000 nM,,O=C1NC2(CCCC2)C(=O)N[C@@H](Cc2ccccc2)C(=O)NC/C=C/c2ccccc2OCCN[C@H]1Cc1ccc2ccccc2c1 [compound 131],
100 to 1000 nM,,O=C1NC2(CCCC2)C(=O)N[C@@H](Cc2ccccc2)C(=O)NC/C=C/c2ccccc2OCCN[C@H]1Cc1cscn1 [compound 134],
100 to 1000 nM,,O=C1NC2(CCCC2)C(=O)N[C@@H](Cc2ccccc2)C(=O)NC/C=C/c2ccccc2OCCN[C@H]1Cc1cccs1 [compound 135],
10 to 100 nM,,CCC[C@@H]1NCCOc2ccccc2/C=C/CNC(=O)[C@H](Cc2ccccc2)NC(=O)C2(CCCC2)NC1=O [compound 137],
100 to 1000 nM,,CC(C)C1NCCOc2ccccc2/C=C/CNC(=O)C(Cc2ccccc2)NC(=O)C2(Cc3ccccc3C2)NC1=O (stereo not shown) [compound 142],
100 to 1000 nM,,CC(C)C1NCCOc2ccccc2/C=C/CNC(=O)C(Cc2ccccc2)NC(=O)C2(CCSCC2)NC1=O (stereo not shown) [compound 143],
100 to 1000 nM,,CC[C@H](C)[C@@H]1NCCOc2ccccc2CCCNC(=O)[C@@H](Cc2ccccc2)NC(=O)[C@@H](C(C)C)N(C)C1=O [compound 144],
1000 to 10000 nM,,CC[C@@H](C)[C@@H]1C(=O)N[C@H](Cc2ccccc2)C(=O)NCCCc2ccccc2OCCN[C@@H]([C@@H](C)CC)C(=O)N1C [compound 149],

Ki [1],Ki [2],SMILES,further results
,> 1000 nM,CC(C)C[C@@H]1NCCOc2ccccc2/C=C/CNC(=O)[C@H](C(c2ccccc2)c2ccccc2)NC(=O)C2(CCCC2)NC1=O [compound 158],
,> 10000 nM,CC(C)C[C@@H]1NCCOc2ccccc2/C=C/CNC(=O)[C@H](Cc2cscn2)NC(=O)C2(CCCC2)NC1=O [compound 163],
,100 to 1000 nM,CC[C@H](C)[C@@H]1NCCCc2ccccc2CCNC(=O)[C@@H](Cc2ccccc2)NC(=O)[C@@H](C)N(C)C1=O [compound 179],
,100 to 1000 nM,CC[C@H](C)[C@@H]1NCCCCc2ccccc2CCNC(=O)[C@@H](Cc2ccccc2)NC(=O)[C@@H](C)N(C)C1=O [compound 180],
,100 to 1000 nM,CC[C@H](C)[C@@H]1NCCOCC=CCNC(=O)[C@@H](Cc2ccccc2)NC(=O)[C@@H](C)N(C)C1=O [compound 185],
,100 to 1000 nM,CC[C@H](C)[C@@H]1NCCc2ccccc2C=CCNC(=O)[C@@H](Cc2ccccc2)NC(=O)[C@@H](C)N(C)C1=O [compound 187],
,10 to 100 nM,CC(C)[C@@H]1NCCOc2ccccc2/C=C/CNC(=O)[C@H](Cc2ccccc2)NC(=O)C2(CCCC2)NC1=O [compound 200],
,> 10000 nM,CCC[C@H]1C(=O)N(C)[C@H](C)C(=O)N[C@H](Cc2ccccc2)C(=O)NCCCc2ccccc2OCCN1C(C)=O [compound 202],
,> 10000 nM,CC(=O)N1CCOc2ccccc2/C=C/CNC(=O)[C@H](Cc2ccccc2)NC(=O)C2(CCCC2)NC(=O)[C@@H]1CC(C)C [compound 204],
,> 10000 nM,CC(C)C1NCCOc2ccccc2CCCNC(=O)C(Cc2ccccc2)NC(=O)C2(CCNCC2)NC1=O (stereo not shown) [compound 207],
,> 1000 nM,O=C1NC2(CCCC2)C(=O)N[C@@H](Cc2ccccc2)C(=O)NC/C=C/c2ccccc2OCCN[C@H]1Cc1ccccn1 [compound 210],
,> 1000 nM,CC(C)[C@@H]1NCCOc2ccccc2/C=C/CNC(=O)[C@H](Cc2ccccc2)NC(=O)C2(CCNCC2)NC1=O [compound 211],
,1000 to 10000 nM,CCC(C)C1NCCOc2ccccc2CCCNC(=O)C(Cc2ccccc2)NC(=O)C(COC(C)(C)C)NC1=O (stereo not shown) [compound 215],
,1000 to 10000 nM,CC(C)[C@@H]1NCCOc2ccccc2CCCNC(=O)[C@H](Cc2ccccc2)NC(=O)C2(CC2)NC1=O [compound 216],
,10 to 100 nM,O=C1NC/C=C/c2ccccc2OCCNC2(CCCCC2)C(=O)NC2(CCCC2)C(=O)N[C@H]1Cc1ccccc1 [compound 218],
,100 to 1000 nM,O=C1NC2(CCCC2)C(=O)N[C@@H](Cc2ccccc2)C(=O)NC/C=C/c2ccccc2OCCN[C@H]1Cc1cnc[nH]1 [compound 219],
,1000 to 10000 nM,CCC[C@@H]1NCCOc2ccccc2CCCNC(=O)[C@@H](Cc2ccccc2)NC(=O)[C@@H]2CCCN2C1=O [compound 220],"Ki (Table 3E, read-out: Ki): 1000 to 10000 nM"
,1000 to 10000 nM,CC(C)C[C@@H]1NCCOc2ccccc2CCCNC(=O)[C@H](Cc2ccccc2)NC(=O)[C@@H]2CCCN2C1=O [compound 222],"Ki (Table 3E, read-out: Ki): 1000 to 10000 nM"
